# Measured values from patent publication EP1561465A2, “Methods of use of fluoroquinolone compounds against bacteria” (LG Life Sciences, Ltd., priority 1999, dated 2001).
# Read-outs that look alike come from different tables or passages of the source.
# Assays:
# Type in all cases: cell-based
# Yersinia enterocolitica = test: MIC by agar dilution (NCCLS M7-A4), 288 enteropathogenic isolates, eight quinolones; conditions: Yersinia enterocolitica (n = 22)
# Enterobacter cloacae = test: MIC by NCCLS broth microdilution, 1100 Japanese clinical isolates 1997-1998; conditions: Enterobacter cloacae (n=40)
# Streptococcus pyogenes = test: as above
# Salmonella spp. = test: MIC by agar dilution (NCCLS M7-A4), 288 enteropathogenic isolates, eight quinolones; conditions: for MIC: ciprofloxacin MIC ≥[…], read-out: MIC
# E. coli = test: microbe, parasite or virus in culture; conditions: Escherichia coli
# [1] = test system: Streptococcus pneumoniae and Haemophilus influenzae; test: MIC by broth microdilution (NCCLS), all isolates pooled
# Staphylococcus aureus = test: MIC by agar dilution (NCCLS), 411 isolates Buenos Aires 1998-99; conditions: for MIC90: Staphylococcus aureus
# Klebsiella pneumoniae [2] = test: MIC by NCCLS reference broth microdilution, 450 respiratory tract pathogens; conditions: for MIC50 / MIC90: Klebsiella pneumoniae
# Enterococcus gallinarum = test: MIC by NCCLS broth microdilution, 1100 Japanese clinical isolates 1997-1998; conditions: Enterococcus gallinarum, GALLINARUM
# Klebsiella pneumoniae [3] = test: as above; conditions: Klebsiella pneumoniae (n=35)
# Klebsiella oxytoca = test: as above; conditions: Klebsiella oxytoca (n=40)
# Enterococcus faecium = test: as above; conditions: for MIC: Enterococcus faecium
# Enterobacter aerogenes = test: as above; conditions: Enterobacter aerogenes (n=35)
# Proteus mirabilis = test: as above; conditions: Proteus mirabilis (n=30)
# [4] = test system: Gram negative anaerobic pathogens and facultative anaerobic pathogens; test: MIC by agar dilution, Brucella HK agar with 5% laked sheep blood, anaerobic reference strains
# Hafnia alvei = test: MIC by agar dilution (NCCLS M7-A4), 288 enteropathogenic isolates, eight quinolones; conditions: Hafnia alvei (n = 32)
# Campylobacter jejuni = test: MIC by agar dilution (NCCLS M7-A4), 5% sheep blood, microaerophilic 48 h; conditions: Campylobacter jejuni (n=91)
# Streptococcus pneumoniae = test: MIC by two-fold serial agar dilution, Sensitivity Disk agar-N (Kitasato isolates); conditions: Streptococcus pneumoniae; for MIC: read-out: MIC Range; for MIC50: read-out: MIC50
# [5] = S. aureus, Methicillin resistant (n = 14)
# [6] = S. aureus, Methicillin susceptible (n = 66)
# [7] = extended spectrum β-lactamase negative (n = 30)
# [8] = extended spectrum β-lactamase positive (n = 20)
smiles,measurement,setting,value
"N[C@@H]1[C@H]2CN(c3nc4c(cc3F)c(=O)c(C(=O)O)cn4-c3ccc(F)cc3F)C[C@@H]12 [Trovafloxacin, trovafloxacin]",% Susceptible,Yersinia enterocolitica,100%
same,MIC50,Yersinia enterocolitica,0.06 µg/mL
same,MIC90,Yersinia enterocolitica,0.06 µg/mL
same,MIC Range,Yersinia enterocolitica,≤0.015 to 0.25 µg/mL
same,MIC50,Enterobacter cloacae,0.032 µg/mL
same,MIC90,Enterobacter cloacae,1 µg/mL
same,MIC Range,Enterobacter cloacae,≤0.008 to 2 µg/mL
same,MIC50,Streptococcus pyogenes; Streptococcus pyogenes,0.125 µg/mL
same,MIC90,Streptococcus pyogenes; Streptococcus pyogenes (n=51),0.5 µg/mL
same,MIC Range,Streptococcus pyogenes; Streptococcus pyogenes (n=51),0.063 to 0.5 µg/mL
same,MIC,Salmonella spp.; S. hadar (n = 2),0.5 µg/mL
same,MIC,Salmonella spp.; S. newport (n = 1),0.5 µg/mL
same,MIC,Salmonella spp.; S. virchow (n = 2),0.25 µg/mL
same,% Susceptible,Salmonella spp.; Salmonella spp. (n = 106),100%
same,MIC50,Salmonella spp.; Salmonella spp. (n = 106),0.06 µg/mL
same,MIC90,Salmonella spp.; Salmonella spp. (n = 106),0.25 µg/mL
same,MIC Range,Salmonella spp.; Salmonella spp. (n = 106),≤0.015 to 1 µg/mL
same,MIC,"Salmonella spp.; Salmonella, S. tshiongwe (n = 1)",1 µg/mL
same,MIC50,"E. coli; E. coli (13 strains), quinolone-resistant, read-out: MIC50",0.063 µg/mL
same,MIC90,"E. coli; E. coli (13 strains), quinolone-resistant, read-out: MIC90",0.5 µg/mL
same,MIC,"E. coli; E. coli KU1029, mutant type SP (spontaneous mutant in the DNA gyrase)",0.063 µg/mL
same,MIC,"E. coli; E. coli KU1030, mutant type SP",0.063 µg/mL
same,MIC,"E. coli; E. coli KU1031, mutant type SP",0.063 µg/mL
same,MIC,"E. coli; E. coli KU1032, mutant type SP",0.25 µg/mL
same,MIC,"E. coli; E. coli KU1033, mutant type SP",0.031 µg/mL
same,MIC,"E. coli; E. coli KU1034, mutant type GA (DNA gyrase A)",0.5 µg/mL
same,MIC,"E. coli; E. coli KU1035, mutant type GA (DNA gyrase A)",0.5 µg/mL
same,MIC,"E. coli; E. coli KU1036, mutant type GB (DNA gyrase B)",0.063 µg/mL
same,MIC,"E. coli; E. coli KU1038, mutant type SP",0.063 µg/mL
same,MIC,"E. coli; E. coli KU1039, mutant type SP",0.25 µg/mL
same,MIC,"E. coli; E. coli KU1040, mutant type SP",≤ 0.008 µg/mL
same,MIC,"E. coli; E. coli KU1041, mutant type SP",0.5 µg/mL
same,MIC,"E. coli; E. coli KU1042, mutant type SP",0.125 µg/mL
same,MIC90,"[1]; all (380) isolates tested (235 S. pneumoniae, 145 H. influenzae)",0.12 µg/mL
same,MIC90,[1]; all isolates tested (602),0.25 µg/mL
same,Resistance (%),Staphylococcus aureus; [5],7%
same,Resistance (%),Staphylococcus aureus; [6],0%
same,MIC Range,Staphylococcus aureus; Staphylococcus aureus (n = 80),≤0.004 to 8 µg/mL
same,MIC90,Staphylococcus aureus; [5],4 µg/mL
same,MIC90,Staphylococcus aureus; [6],0.06 µg/mL
same,MIC90,Staphylococcus aureus; Staphylococcus aureus (n = 80),2 µg/mL
same,MIC Range,Klebsiella pneumoniae [2]; Klebsiella pneumoniae (n = 50),≤0.0075 to 0.5 µg/mL
same,MIC50,Klebsiella pneumoniae [2]; Klebsiella pneumoniae (n = 50),0.06 µg/mL
same,MIC90,Klebsiella pneumoniae [2]; Klebsiella pneumoniae (n = 50),0.5 µg/mL
same,MIC50,Klebsiella pneumoniae [2]; [7],0.06 µg/mL
same,MIC90,Klebsiella pneumoniae [2]; [7],0.12 µg/mL
same,MIC50,Klebsiella pneumoniae [2]; [8],0.5 µg/mL
same,MIC90,Klebsiella pneumoniae [2]; [8],0.5 µg/mL
same,MIC Range,Klebsiella pneumoniae [2]; [7],≤0.0075 to 0.015 µg/mL
same,MIC Range,Klebsiella pneumoniae [2]; [8],0.06 to 0.5 µg/mL
same,MIC,Enterococcus gallinarum,0.125 µg/mL
same,MIC,"Enterococcus gallinarum; Enterococcus gallinarum (vanC1), strain TMS2, read-out: MIC",0.25 µg/mL
same,MIC,"Enterococcus gallinarum; Enterococcus gallinarum (vanC1), strain TMS3, read-out: MIC",0.25 µg/mL
same,MIC,"Enterococcus gallinarum; Enterococcus gallinarum (vanC1), strain TMS4, read-out: MIC",0.063 µg/mL
same,MIC50,Klebsiella pneumoniae [3],0.032 µg/mL
same,MIC Range,Klebsiella pneumoniae [3],≤0.008 to 1 µg/mL
same,MIC90,Klebsiella pneumoniae [3]; read-out: MIC90,0.063 µg/mL
same,MIC50,Klebsiella oxytoca,0.032 µg/mL
same,MIC90,Klebsiella oxytoca,8 µg/mL
same,MIC Range,Klebsiella oxytoca,≤0.008 to 32 µg/mL
same,MIC50,Enterococcus faecium; Enterococcus faecium (n=39),16 µg/mL
same,MIC90,Enterococcus faecium; Enterococcus faecium (n=39),64 µg/mL
same,MIC Range,Enterococcus faecium; Enterococcus faecium (n=39),0.25 to 64 µg/mL
same,MIC,"Enterococcus faecium; Enterococcus faecium (vanA) vancomycin resistant, strain TMS1",8 µg/mL
same,MIC,"Enterococcus faecium; Enterococcus faecium (vanA) vancomycin resistant, strain TMS2",1 µg/mL
same,MIC,"Enterococcus faecium; Enterococcus faecium (vanA) vancomycin resistant, strain TMS3",8 µg/mL
same,MIC,"Enterococcus faecium; Enterococcus faecium (vanA) vancomycin resistant, strain TMS4",8 µg/mL
same,MIC,"Enterococcus faecium; Enterococcus faecium (vanA) vancomycin resistant, strain TMS5",2 µg/mL
same,MIC,"Enterococcus faecium; Enterococcus laecium (van B) vancomycin resistant, strain TMS6",32 µg/mL
same,MIC,"Enterococcus faecium; Enterococcus laecium (van B) vancomycin resistant, strain TMS7",32 µg/mL
same,MIC Range,Enterobacter aerogenes,≤0.008 to 0.125 µg/mL
same,MIC50,Enterobacter aerogenes; Klebsiella aerogenes,0.032 µg/mL
same,MIC90,Enterobacter aerogenes; Klebsiella aerogenes,0.063 µg/mL
same,MIC Range,Proteus mirabilis,0.063 to 16 µg/mL
same,MIC50,Proteus mirabilis; read-out: MIC50,0.25 µg/mL
same,MIC90,Proteus mirabilis; read-out: MIC90,0.5 µg/mL
same,MIC,[4],0.125 µg/mL
same,MIC,"[4]; Bacteroides eggerthii, ATCC27754, Bacteroides eggerthii ATCC27754, read-out: MIC",0.5 µg/mL
same,MIC,[4]; Bacteroides fragilis,0.125 µg/mL
same,MIC,[4]; Bacteroides fragilis GA-I0558,0.125 µg/mL
same,MIC,"[4]; Bacteroides fragilis, ATCC25285",0.125 µg/mL
same,MIC,"[4]; Bacteroides fragilis, Bacteroides fragilis GA-I7955, read-out: MIC",0.25 µg/mL
same,MIC,"[4]; Bacteroides fragilis, Bacteroides fragilis GAI10150, read-out: MIC",0.25 µg/mL
same,MIC,"[4]; Bacteroides fragilis, Bacteroides fragilis GAI30079, read-out: MIC",0.5 µg/mL
same,MIC,"[4]; Bacteroides fragilis, Bacteroides fragilis GAI30144, read-out: MIC",0.25 µg/mL
same,MIC,"[4]; Bacteroides fragilis, NCTC10581, Bacteroides fragilis NCTC10581, read-out: MIC",0.25 µg/mL
same,MIC,"[4]; Bacteroides ovatus, ATCC8483, Bacteroides ovatus ATCC8483, read-out: MIC",0.5 µg/mL
same,MIC,"[4]; Bacteroides thetaiotaomicron, ATCC29741, Bacteroides thetaiotaomicron ATCC29741, read-out: MIC",0.5 µg/mL
same,MIC,"[4]; Bilophilla wadsworthia WAL7959, read-out: MIC",0.5 µg/mL
same,MIC,"[4]; Campylobacter gracilis, JCM8538, Campylobacter gracilis JCM8538, read-out: MIC",≤ 0.03 µg/mL
same,MIC,"[4]; Campylobacter ureolyticus, NCTC10941, Bacteroides ureolyticus NCTC10941, read-out: MIC",≤ 0.03 µg/mL
same,MIC,"[4]; Capnocytophaga ochracea, Capnocytophaga ochracea GAI5586, read-out: MIC",≤ 0.03 µg/mL
same,MIC,"[4]; Fusobacterium necrophorum, ATCC25286, Fusobacterium necrophorum ATCC25286, read-out: MIC",0.25 µg/mL
same,MIC,"[4]; Fusobacterium nucleatum, ATCC25586, Fusobacterium nucleatum ATCC25586, read-out: MIC",0.5 µg/mL
same,MIC,"[4]; Fusobacterium varium, ATCC8501, Fusobacterium varium ATCC8501, read-out: MIC",4 µg/mL
same,MIC,"[4]; Hoylesella oralis, ATCC33269, Prevotella oralis ATCC33269, read-out: MIC",2 µg/mL
same,MIC,"[4]; Parabacteroides distasonis, ATCC8503, Bacteroides distasonis ATCC8503, read-out: MIC",0.5 µg/mL
same,MIC,"[4]; Phocaeicola vulgatus, ATCC8482, Bacteroides vulgatus ATCC8482, read-out: MIC",0.5 µg/mL
same,MIC,"[4]; Porphylomonas gingivalis ATCC33277, read-out: MIC",≤ 0.03 µg/mL
same,MIC,"[4]; Porphyromonas asaccharolytica, ATCC25260",0.125 µg/mL
same,MIC,"[4]; Prevotella bivia, ATCC29303, Prevotella bivia ATCC29303, read-out: MIC",2 µg/mL
same,MIC,"[4]; Prevotella buccaeATCC33574, read-out: MIC",0.5 µg/mL
same,MIC,"[4]; Prevotella heparinolytica, ATCC35895",0.125 µg/mL
same,MIC,"[4]; Sutterella wadsworthensis, ATCC51579, Sutterella wadsworthensis ATCC51579, read-out: MIC",0.25 µg/mL
same,MIC,"[4]; Veillonella dispar, ATCC17748",0.125 µg/mL
same,MIC,"[4]; Veillonella parvula, ATCC10790, Veillonella parvula ATCC10790, read-out: MIC",0.25 µg/mL
same,% Susceptible,Hafnia alvei,100%
same,MIC50,Hafnia alvei,0.06 µg/mL
same,MIC90,Hafnia alvei,0.06 µg/mL
same,MIC Range,Hafnia alvei,0.03 to 0.12 µg/mL
same,% Susceptible,Campylobacter jejuni,31.86%
same,MIC50,Campylobacter jejuni,8 µg/mL
same,MIC90,Campylobacter jejuni,8 µg/mL
same,MIC Range,Campylobacter jejuni,≤0.015 to 32 µg/mL
same,MIC90,Streptococcus pneumoniae,0.125 µg/mL
same,MIC90,"Streptococcus pneumoniae; 18 h, Ciprofloxacin-resistant (21), ciprofloxacin MIC ≥8 µg/ml, read-out: MIC90",4 µg/mL
same,MIC,"Streptococcus pneumoniae; 18 h, Ciprofloxacin-susceptible (94)",0.031 to 0.25 µg/mL
same,MIC,"Streptococcus pneumoniae; 18 h, Erythromycin-resistant (37)",0.063 to 2 µg/mL
same,MIC,"Streptococcus pneumoniae; 18 h, Minocycline-resistant (37)",0.063 to 2 µg/mL
same,MIC,"Streptococcus pneumoniae; 18 h, Penicillin-resistant (19)",0.031 to 0.25 µg/mL
same,MIC,Streptococcus pneumoniae; 18 h,0.125 to 4 µg/mL
same,MIC50,Streptococcus pneumoniae; Ciprofloxacin-resistant (21),2 µg/mL
same,MIC50,Streptococcus pneumoniae; Ciprofloxacin-susceptible (94),0.063 µg/mL
same,MIC50,Streptococcus pneumoniae; Erythromycin-resistant (37),0.063 µg/mL
same,MIC90,"Streptococcus pneumoniae; Erythromycin-resistant (37), read-out: MIC90",0.25 µg/mL
same,MIC50,Streptococcus pneumoniae; Minocycline-resistant (37),0.063 µg/mL
same,MIC90,"Streptococcus pneumoniae; Minocycline-resistant (37), read-out: MIC90",0.25 µg/mL
same,MIC50,Streptococcus pneumoniae; Penicillin-resistant (19),0.063 µg/mL
same,MIC90,"Streptococcus pneumoniae; Penicillin-resistant (19), read-out: MIC90",0.25 µg/mL
